Measurements reported in PMC3241878 (ACS chemical biology, 2011).

Target: Siderocalin (Scn; a.k.a. Lcn2, Ngal, 24p3) (Homo sapiens, UniProt P80188)
Assay: intrinsic fluorescence quenching titration
Assay type: binding
Details: pH 7.4, TBS, 5% DMSO, 32 μg/mL ubiquitin, 100 nM protein; ferric complex

Siderocalin (Scn; a.k.a. Lcn2, Ngal, 24p3), sequence (P80188 21-198): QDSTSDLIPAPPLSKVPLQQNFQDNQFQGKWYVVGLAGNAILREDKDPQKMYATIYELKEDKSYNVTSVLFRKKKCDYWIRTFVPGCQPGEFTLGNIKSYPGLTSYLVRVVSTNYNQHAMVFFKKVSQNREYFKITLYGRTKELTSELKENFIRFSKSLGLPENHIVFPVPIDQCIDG

Fe^IIICMB (n = 3)
Kd: > 9 µM

Fe^IIICMB (n = 4)
Kd (μM): 2.36 ± 9.0×10^−3 μM

Fe^IIICMB-5 [n = 5]
Kd (μM): 1.10 ± 2.6×10^−2 μM

Fe^IIICMB-6 [n = 6]
Kd (μM): 0.654 ± 2.2×10^−2 μM

Fe^IIICMB-7 [n = 7]
Kd (μM): 0.128 ± 1.0×10^−3 μM
